Laboratory results taken from patent publication US20100168079A1 (priority 2008, published 2010).

Assays:
human S1P1 receptors = molecular target: T1, human S1P1 receptors (Homo sapiens, UniProt P21453); test: Human S1P1 Receptor Calcium FLIPR Antagonist Assay (HeLa Gα16 S1P1); format: cell-based; details: relative antagonism of Ca2+ signal evoked by probing agonist GNF-AC-1 at EC80; HeLa-S1P1/Gα16 cells
T1 construct: myc (N); expressed in transfected cells; host or cells: HeLa (human cervix carcinoma, ATCC CCL2), HeLa-S1P1/Gα16 cell clone 1
T1 sequence (P21453 whole entry): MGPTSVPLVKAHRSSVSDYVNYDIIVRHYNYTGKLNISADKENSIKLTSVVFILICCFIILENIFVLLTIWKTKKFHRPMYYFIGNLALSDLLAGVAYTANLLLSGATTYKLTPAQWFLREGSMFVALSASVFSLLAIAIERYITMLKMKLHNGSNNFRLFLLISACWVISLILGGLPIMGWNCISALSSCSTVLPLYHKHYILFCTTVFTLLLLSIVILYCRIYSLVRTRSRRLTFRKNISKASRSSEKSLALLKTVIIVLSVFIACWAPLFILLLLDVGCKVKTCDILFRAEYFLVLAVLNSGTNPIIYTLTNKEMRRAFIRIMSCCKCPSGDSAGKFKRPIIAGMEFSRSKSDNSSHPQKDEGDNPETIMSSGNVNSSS
Method in brief: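 HeLa Gα16 cells expressing S1P1 loaded for calcium fluorescence on FLIPR; compounds added in HBSS with 0.1% BSA, then agonist at EC80 20-30 min later. IC50 from (Fmax-Fmin)/Fmin versus log compound concentration.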

circulating lymphocytes = test: Measurement of Circulating Lymphocytes; format: in vivo, Rats (Lewis strain, male); details: Rattus norvegicus, Lymphocyte; male Lewis rats, 14 hours after oral 30 mg/kg, compared to vehicle-only group; mean±SEM; read-out: Residual Lymphocyte Counts 14 hours after 30 mg/kg p.o. dosing
Experimental: The compounds of formula (I) typically induce the depletion of blood lymphocyte as may be determined in the assay described below. Moreover, compounds of formula (I) are typically efficacious in the said assay also when administered via the per oral route of administration.
Measurement of Circulating Lymphocytes:
The test compounds (or salts thereof) are dissolved in a vehicle such as water, saline, PEG (polyethylene glycol) 200, or PBS (phosphate buffered saline). Rats (Lewis strain, male, 6-12 weeks old) are administered up to 100 mg/kg of the test compounds in 2 ml/kg vehicle via per oral or subcutaneous application. The vehicle or a reference salt and FTY720 (0.3 mg/kg) are included as negative and positive controls, respectively.
Blood is collected from the sublingual vein before and 2, 8 and 24 hours or 14, 18 and 24 hours after the test compound administration under short isoflurane anesthesia. Whole blood samples are subjected to hematology analysis. Peripheral lymphocyte counts are determined using an automated analyzer. The Haemathology System uses a combination of light scatter, cytochemical staining and nuclear density on two independent channels to measure the total and differential white cell counts. Two to four rats are used to assess the lymphocyte depletion activity of each compound screened. The data are presented as mean±SEM.

Row | Structure (SMILES) | IC50 (human S1P1 receptors) [nM] | response vs control in vivo at 30 mg/kg (circulating lymphocytes) [%]
1 | CC[C@@H](Nc1ccc(F)c(-c2cc(C)c(C(=O)NC3(C(=O)O)CC3)c(C)c2)c1)c1ccc(Cl)c(C)c1 [Example 115, 1-({5′-[(R)-1-(4-Chloro-3-methyl-phenyl)-propylamino]-2′-fluoro-3,5-dimethyl-biphenyl-4-carbonyl}-amino)-cyclopropanecarboxylic acid] | 2 | 15.8
2 | CC[C@@H](Nc1ccc(F)c(-c2cc(C)c(C(=O)N(C)[C@@H](C)C(=O)O)c(C)c2)c1)c1ccc(Cl)c(C)c1 [Example 117, (S)-2-({5′-[(R)-1-(4-Chloro-3-methyl-phenyl)-propylamino]-2′-fluoro-3,5-dimethyl-biphenyl-4-carbonyl}-methyl-amino)-propionic acid] | 2 | 15
